Target: T1, human CCR5 chemokine receptor (Homo sapiens, UniProt P51681)
T1 construct: expressed in transfected cells
Assay: Inhibition of [125I]-RANTES binding to CCR5/CHO cells (CCR5 antagonistic activity)
Settings: test compound 1 μM, [125I]-RANTES as ligand, room temperature; for inhibition at 1 µM: 40 min, read-out: Binding Inhibitory Ratio (%); for Binding Inhibitory Ratio (%): 40 minutes
Protocol: Cloning of CCR5 gene from human spleen cDNA was conducted using the PCR method. Using spleen cDNA (0.5 ng) (TOYOBO CO., LTD, QUICK-Clone cDNA) as a template, PCR was performed in a DNA Thermal Cycler 480 (manufactured by Perkin Elmer) (reaction conditions: 30 cycles of 95° C. for 1 minute, 60° C. for 1 minute, and 75° C. for 5 minutes) by adding primer sets, SEQ. ID NO: 1 (sequence length: 34; sequence type: nucleic acid; chain number: single strand; topology: linear; kind of sequence: other nucleic acid synthetic. DNA) described in Experimental. Example (1) of WO 99/32100, and SEQ ID NO: 2 (sequence length: 34; sequence type: nucleic acid; chain number: single strand; topology: linear; kind of sequence: other nucleic acid synthetic. DNA) described in Experimental. Example (1) of WO 99/32100, (25 pmol, respectively), which were prepared referring to the nucleotide sequence of CCR5 gene, as reported by Samson et al. (Biochemistry 35 (11), 3362-3367 (1996)) and by using TaKaRa. EX Taq (Takara Shuzo). The resultant. PCR product was subjected to agarose gel electrophoresis to collect an approximately 1.0 kb. DNA fragment, which was subjected to an Original TA Cloning Kit (Funakoshi Co., Ltd.) to carry out cloning of CCR5 gene.
The plasmid obtained above was digested with restriction enzymes XbaI (Takara Shuzo Co., Ltd.) and BamHI (Takara Shuzo Co., Ltd.), and then subjected to agarose gel electrophoresis to collect DNA fragment of about 1.0 kb. The DNA fragment and plasmid pcDNA 3.1 (Funakoshi. Co., Ltd.) for expression in animal cells, which was previously digested with XbaI and BamHI, were mixed and ligated by DNA Ligation Kit Ver. 2 (Takara Shuzo Co., Ltd.). The resulting plasmid was subjected to transformation into. E. coli JM109 competent cells (Takara Shuzo Co., Ltd.) to obtain plasmid pCKR5.
CHO-K1 cells were cultured in a 750-ml tissue culture flask (Becton, Dickinson and Company.) using. Ham F12 medium (NIHON PHARMACEUTICAL CO., LTD.) containing 10% fetal bovine serum (Lifetech Oriental) and were collected using 0.5 g/L trypsin-0.2 g/L EDTA (Lifetech Oriental). The cells were washed with PBS (Lifetech Oriental), centrifuged (1000 rpm, 5 minutes), and suspended in PBS. The DNA was introduced into the cells using a Gene Pulser (Bio-Rad Laboratories, Inc.) under the following conditions. Namely, 8×10^6 cells and 10 μg of plasmid pCKR5 for expression of human CCR5 were placed in a cuvette having a 0.4-cm gap, and electroporation was carried out with a voltage 0.25 kV and 960 μF of capacitance. Then, the cells were transferred into Ham's. F12 medium containing 10% fetal bovine serum, and incubated for 24 hours. The cells were collected, centrifuged, and suspended in Ham' F12 medium containing 10% fetal bovine serum and Geneticin (Lifetech Oriental) at a concentration of 500 μg/ml. The suspension of cells was diluted to a concentration of 10^4 cells/ml, and was inoculated onto 96-well plate (Becton Dickinson), to obtain Geneticin-resistant strain.
Then, resulting. Geneticin-resistant strain were cultured on 96-well plate (Becton Dickinson), and CCR5-expressing cells were selected from the resistant cells. Namely, in an assay buffer, (Ham's F12 medium containing 0.5% BSA, and 20 mM HEPES (Wako Pure Chemical Ind., pH 7.2)) to which was added […][125I]-RANTES (Amersham) as a ligand, the cells were subjected to a binding reaction at room temperature for 40 minutes. Wells containing the cells were washed with ice-cooled PBS, and 50 μl/well of 1M NaOH was added and stirred. The cells to which the ligand was bound specifically, i.e., CCR5/CHO cells, were selected by measurement of radioactivity using a […].
The CCR5/CHO cells were inoculated onto 96-well microplate at a concentration of 5×10^4 cells/well, and were cultured for 24 hours. After removal of the medium by aspiration, to each well was added an assay buffer containing a test compound (1 μM), and [125I]/RANTES (Amersham) used as a ligand at a concentration of […]. […]

T1 sequence (P51681 whole entry): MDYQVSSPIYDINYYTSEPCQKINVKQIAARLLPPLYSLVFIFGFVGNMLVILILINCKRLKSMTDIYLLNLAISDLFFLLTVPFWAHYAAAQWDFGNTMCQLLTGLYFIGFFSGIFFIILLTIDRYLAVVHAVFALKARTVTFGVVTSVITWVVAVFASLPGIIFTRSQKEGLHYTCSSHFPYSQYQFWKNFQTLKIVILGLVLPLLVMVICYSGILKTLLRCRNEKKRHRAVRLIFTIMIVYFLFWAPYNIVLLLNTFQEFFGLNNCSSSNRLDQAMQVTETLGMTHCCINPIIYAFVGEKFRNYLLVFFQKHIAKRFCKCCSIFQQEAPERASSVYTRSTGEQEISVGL

SMILES	inhibition at 1 µM	Binding Inhibitory Ratio (%)
CCCCOCCOc1ccc(-c2ccc3c(c2)C=C(C(=O)Nc2ccc([S+]([O-])Cc4nccn4CCCC(N)=O)cc2)CCN3CC(C)C)cc1 (single isomer, unassigned; (-)) [Compound 418, (−)-N-[4-[[[1-(4-amino-4-oxobutyl)-1H-imidazol-2-yl]methyl]sulfinyl]phenyl]-7-[4-(2-butoxyethoxy)phenyl]-1-isobutyl-2,3-dihydro-1H-1-benzazepine-4-carboxamide]	92%	–
CCCCOCCOc1ccc(-c2ccc3c(c2)C=C(C(=O)Nc2ccc([S+]([O-])Cc4cncn4CCC)cc2)CCN3CC(C)C)cc1 (single isomer, unassigned; (-)) [Compound 373, (−)-7-[4-(2-butoxyethoxy)phenyl]-1-isobutyl-N-[4-[[[1-propylimidazol-5-yl]methyl]sulfinyl]phenyl]-2,3-dihydro-1-benzazepine-4-carboxamide]	–	94%
CCCCOCCOc1ccc(-c2ccc3c(c2)C=C(C(=O)Nc2ccc(SCc4nncn4C)cc2)CCN3CC(C)C)cc1 [Compound 130, 7-[4-(2-butoxyethoxy)phenyl]-N-[4-(4-methyl-4H-1,2,4-triazol-3-ylmethylthio)phenyl]-1-isobutyl-2,3-dihydro-1H-1-benzazepine-4-carboxamide]	100%	–
CCCCOCCOc1ccc(-c2ccc3c(c2)C=C(C(=O)Nc2ccc([S+]([O-])Cc4cccnc4)cc2)CCN3CC(C)C)cc1 (stereo not drawn) [Compound 210, 7-[4-(2-butoxyethoxy)phenyl]-1-isobutyl-N-[4-[(3-pyridinylmethyl)sulfinyl]phenyl]-2,3-dihydro-1-benzazepine-4-carboxamide]	97%	–
CCCCOCCOc1ccc(-c2ccc3c(c2)C=C(C(=O)Nc2ccc([S+]([O-])Cc4nccn4C4CC4)cc2)CCN3CC(C)C)cc1 (stereo not drawn) [Compound 367, 7-[4-(2-butoxyethoxy)phenyl]-N-[4-[[[1-cyclopropylimidazol-2-yl]methyl]sulfinyl]phenyl]-1-isobutyl-2,3-dihydro-1-benzazepine-4-carboxamide]	96%	–
CCCCOCCOc1ccc(-c2ccc3c(c2)C=C(C(=O)Nc2ccc(CSc4nncn4C)cc2)CCN3CC(C)C)cc1 [Compound 117, 7-[4-(2-butoxyethoxy)phenyl]-N-[4-(4-methyl-4H-1,2,4-triazol-3-ylthiomethyl)phenyl]-1-isobutyl-2,3-dihydro-1H-1-benzazepine-4-carboxamide]	95%	–
CCCCOCCOc1ccc(-c2ccc3c(c2)C=C(C(=O)Nc2ccc([S+]([O-])Cc4cncn4CCC)cc2)CCN3CCC)cc1 (single isomer, unassigned; (-)) [Compound 378, (−)-7-[4-(2-butoxyethoxy)phenyl]-1-propyl-N-[4-[[[1-propylimidazol-5-yl]methyl]sulfinyl]phenyl]-2,3-dihydro-1-benzazepine-4-carboxamide]	–	87%
C#CCn1cncc1C[S+]([O-])c1ccc(NC(=O)C2=Cc3cc(-c4ccc(OCCOCCCC)cc4)ccc3N(CC(C)C)CC2)cc1 (stereo not drawn) [Compound 443, 7-[4-(2-butoxyethoxy)phenyl]-1-isobutyl-N-[4-[[(1-(2-propin-1-yl)imidazol-5-yl)methyl]sulfinyl]phenyl]-2,3-dihydro-1H-1-benzazepine-4-carboxamide]	–	100%
CCCCOCCOc1ccc(-c2ccc3c(c2)C=C(C(=O)Nc2ccc(SCCn4cnnc4)cc2)CCN3CC(C)C)cc1 [Compound 154, 7-[4-(2-butoxyethoxy)phenyl]-N-[4-(4H-1,2,4-triazol-4-ylethylthio)phenyl]-1-isobutyl-2,3-dihydro-1H-benzazepine-4-carboxamide]	100%	–
CCCCOCCOc1ccc(-c2ccc3c(c2)C=C(C(=O)Nc2ccc(SCc4cnc5n4CCCC5)cc2)CCN3CC(C)C)cc1 [Compound 404, 7-[4-(2-butoxyethoxy)phenyl]-1-isobutyl-N-[4-[[(5,6,7,8-tetrahydroimidazo[1,2-a]pyridin-3-yl)methyl]thio]phenyl]-2,3-dihydro-1H-1-benzazepine-4-carboxamide]	85%	–
CCCCOCCOc1ccc(-c2ccc3c(c2)C=C(C(=O)Nc2ccc([S+]([O-])Cc4nnnn4CC)cc2)CCN3CC(C)C)cc1 (stereo not drawn) [Compound 242, 7-[4-(2-butoxyethoxy)phenyl]-1-isobutyl-N-[4-[[(1-ethyl-tetrazol-5-yl)methyl]sulfinyl]phenyl]-2,3-dihydro-1-benzazepine-4-carboxamide]	94%	–
CCCCOCCOc1ccc(-c2ccc3c(c2)C=C(C(=O)Nc2ccc(SCc4nccn4C4CC4)cc2)CCN3CC(C)C)cc1 [Compound 366, 7-[4-(2-butoxyethoxy)phenyl]-N-[4-[[[1-cyclopropylimidazol-2-yl]methyl]sulfanyl]phenyl]-1-isobutyl-2,3-dihydro-1-benzazepine-4-carboxamide]	96%	–
CCCCOCCOc1ccc(-c2ccc3c(c2)C=C(C(=O)Nc2ccc(CCc4nncn4CCC)cc2)CCN3CC(C)C)cc1 [Compound 152, 7-[4-(2-butoxyethoxy)phenyl]-1-isobutyl-N-[4-[2-(4-propyl-4H-1,2,4-triazol-3-yl)ethyl]phenyl]-2,3-dihydro-1H-benzazepine-4-carboxamide]	97%	–
CCCCOCCOc1ccc(-c2ccc3c(c2)C=C(C(=O)Nc2ccc([S+]([O-])Cc4cncn4C4CC4)cc2)CCN3CC(C)C)cc1 (stereo not drawn) [Compound 74, 7-[4-(2-butoxyethoxy)phenyl]-1-isobutyl-N-[4-[(3-cyclopropylimidazol-4-yl)methylsulfinyl]phenyl]-2,3-dihydro-1H-1-benzazepine-4-carboxamide]	97%	–
CCCCOCCOc1ccc(-c2ccc3c(c2)C=C(C(=O)Nc2ccc([S+]([O-])CC4=NNCN4CCC)nn2)CCN3CC(C)C)cc1 (stereo not drawn) [Compound 68, 7-[4-(2-butoxyethoxy)phenyl]-1-isobutyl-N-[6-[(4-propyl-1H-1,2,4-triazol-3-yl)methylsulfinyl]pyridazin-3-yl]-2,3-dihydro-1H-1-benzazepine-4-carboxamide]	97%	–
CCCCOCCOc1ccc(-c2ccc3c(c2)C=C(C(=O)Nc2ccc([S+]([O-])Cc4cccnc4C)nc2)CCN3CC(C)C)cc1 (stereo not drawn) [Compound 272, 7-[4-(2-butoxyethoxy)phenyl]-1-isobutyl-N-[6-[[(2-methyl-3-pyridinyl)methyl]sulfinyl]-3-pyridinyl]-2,3-dihydro-1-benzazepine-4-carboxamide]	98%	–
CCCCOCCOc1ccc(-c2ccc3c(c2)C=C(C(=O)Nc2ccc(OCc4nncn4CCC)cc2)CCN3CC(C)C)cc1 [Compound 26, 7-[4-(2-butoxyethoxy)phenyl]-1-isobutyl-N-[4-[(4-propyl-4H-1,2,4-triazol-3-yl)methoxy]phenyl]-2,3-dihydro-1H-1-benzazepine-4-carboxamide]	97%	–
CCCCOCCOc1ccc(-c2ccc3c(c2)C=C(C(=O)Nc2ccc([S+]([O-])Cc4nccn4CCOC(C)=O)cc2)CCN3CC(C)C)cc1 (stereo not drawn) [Compound 411, [2-[[[4-[[[7-[4-(2-butoxyethoxy)phenyl]-1-isobutyl-2,3-dihydro-1H-1-benzazepin-4-yl]carbonyl]amino]phenyl]sulfinyl]methyl]-1H-imidazol-1-yl]ethyl acetate]	100%	–

From patent US7262185B2, “Benzazepine derivative, process for producing the same, and use” (Takeda Chemical Industries Ltd., priority 2001, dated 2007)
